Tests used:
Assay type in all cases: biochemical
[1] = molecular target: CDK2/CyclinE1 (Homo sapiens (Human), UniProt P24941); test: CDK2/CyclinE1 kinase inhibitory activity (Caliper mobility shift); settings: read-out: CDK2/Cyclin El IC50
[2] = molecular target: CDK9/CyclinT1 (Homo sapiens (Human), UniProt P50750); test: CDK9/CyclinT1 kinase inhibitory activity (Caliper mobility shift); settings: read-out: CDK9/Cyclin T1 IC50
[3] = molecular target: CDK1/CyclinB (Homo sapiens (Human), UniProt P06493); test: CDK1/CyclinB kinase inhibitory activity (Caliper mobility shift); settings: read-out: CDK1/Cyclin B1 IC50
CDK1/CyclinB, sequence (P06493 whole entry): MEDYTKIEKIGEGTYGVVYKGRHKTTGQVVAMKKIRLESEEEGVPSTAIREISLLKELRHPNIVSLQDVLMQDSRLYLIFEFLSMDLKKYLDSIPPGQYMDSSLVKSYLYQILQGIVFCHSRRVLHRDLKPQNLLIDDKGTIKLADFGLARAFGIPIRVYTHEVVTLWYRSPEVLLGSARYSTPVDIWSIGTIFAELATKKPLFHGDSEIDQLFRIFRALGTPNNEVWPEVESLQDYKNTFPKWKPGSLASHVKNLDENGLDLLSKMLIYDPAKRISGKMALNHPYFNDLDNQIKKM
CDK1/CyclinB, sequence (P14635 whole entry partner): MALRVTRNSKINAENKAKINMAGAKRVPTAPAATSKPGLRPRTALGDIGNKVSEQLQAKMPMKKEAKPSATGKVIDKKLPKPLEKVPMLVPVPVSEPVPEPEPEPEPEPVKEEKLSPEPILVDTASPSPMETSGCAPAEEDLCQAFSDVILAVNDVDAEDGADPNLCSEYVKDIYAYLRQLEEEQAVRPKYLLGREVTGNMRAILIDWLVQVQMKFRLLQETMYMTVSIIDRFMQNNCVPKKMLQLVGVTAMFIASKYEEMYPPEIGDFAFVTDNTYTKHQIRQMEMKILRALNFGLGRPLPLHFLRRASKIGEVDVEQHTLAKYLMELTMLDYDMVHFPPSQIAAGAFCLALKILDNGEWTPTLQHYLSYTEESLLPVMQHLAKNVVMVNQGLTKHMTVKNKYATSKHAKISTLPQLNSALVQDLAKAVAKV

CDK9/CyclinT1, sequence (P50750 whole entry): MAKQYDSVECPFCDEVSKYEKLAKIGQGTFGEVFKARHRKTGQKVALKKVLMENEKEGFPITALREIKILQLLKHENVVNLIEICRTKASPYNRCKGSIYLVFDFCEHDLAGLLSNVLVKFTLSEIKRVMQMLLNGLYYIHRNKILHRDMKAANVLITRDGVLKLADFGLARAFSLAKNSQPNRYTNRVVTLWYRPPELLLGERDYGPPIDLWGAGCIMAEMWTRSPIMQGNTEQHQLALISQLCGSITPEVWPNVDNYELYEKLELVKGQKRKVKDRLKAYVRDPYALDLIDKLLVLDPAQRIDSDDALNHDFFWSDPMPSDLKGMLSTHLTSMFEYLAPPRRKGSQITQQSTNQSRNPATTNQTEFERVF
CDK9/CyclinT1, sequence (O60563 whole entry partner): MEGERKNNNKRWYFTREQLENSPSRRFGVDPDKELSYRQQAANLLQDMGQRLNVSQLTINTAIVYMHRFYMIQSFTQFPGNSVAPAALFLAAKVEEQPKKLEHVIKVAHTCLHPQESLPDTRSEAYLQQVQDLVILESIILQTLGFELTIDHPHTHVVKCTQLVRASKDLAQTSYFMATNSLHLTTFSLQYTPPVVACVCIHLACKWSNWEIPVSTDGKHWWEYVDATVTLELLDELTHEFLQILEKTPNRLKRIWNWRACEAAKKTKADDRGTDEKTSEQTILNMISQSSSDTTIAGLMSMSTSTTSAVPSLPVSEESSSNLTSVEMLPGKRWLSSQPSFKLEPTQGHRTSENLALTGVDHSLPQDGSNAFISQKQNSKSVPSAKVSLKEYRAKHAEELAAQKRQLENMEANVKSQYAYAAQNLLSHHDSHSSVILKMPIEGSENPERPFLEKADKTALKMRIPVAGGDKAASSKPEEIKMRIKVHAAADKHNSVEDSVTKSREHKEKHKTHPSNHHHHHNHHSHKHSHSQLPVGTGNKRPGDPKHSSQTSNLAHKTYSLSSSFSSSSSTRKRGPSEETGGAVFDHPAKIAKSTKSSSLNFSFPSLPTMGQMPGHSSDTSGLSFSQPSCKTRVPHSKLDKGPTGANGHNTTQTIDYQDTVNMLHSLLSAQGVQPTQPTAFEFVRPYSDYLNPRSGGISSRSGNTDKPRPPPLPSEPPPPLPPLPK

NS(=O)(=O)c1ccc(Nc2ncc(C(F)(F)F)c(O[C@H]3[C@@H]4CC[C@@H](C4)[C@H]3O)n2)cc1 (single isomer, unassigned) [Example 113b]
IC50 [1]: < 10 nM
IC50 [2]: 100 to 1000 nM
IC50 [3]: 10 to 100 nM

N#Cc1cnc(Nc2ccc(S(N)(=O)=O)cc2)nc1OC1CCCCCC1O (single isomer, unassigned) [Example 22b]
IC50 [1]: < 10 nM
IC50 [2]: 100 to 1000 nM
IC50 [3]: 10 to 100 nM

CO[C@H]1CCCN(c2nc(Nc3ccc(S(N)(=O)=O)cc3)ncc2C#N)C1 [Example 80]
IC50 [1]: 10 to 100 nM
IC50 [3]: 100 to 1000 nM

[2H]C([2H])([2H])NS(=O)(=O)c1ccc(Nc2ncc(C#N)c(OC3CCCOCC3)n2)cc1 (single isomer, unassigned) [Example 33b]
IC50 [1]: < 10 nM
IC50 [2]: ≥ 1000 nM
IC50 [3]: 100 to 1000 nM

C[C@H]1CCCCN1c1nc(Nc2ccc(S(N)(=O)=O)cc2)ncc1F [Example 88]
IC50 [1]: < 10 nM
IC50 [3]: 10 to 100 nM

N#Cc1cnc(Nc2ccc(S(N)(=O)=O)cc2)nc1OCC1(O)CCCCC1 [Example 16]
IC50 [1]: 10 to 100 nM
IC50 [3]: 100 to 1000 nM

[2H]C([2H])([2H])NS(=O)(=O)c1ccc(Nc2ncc(CC)c(OC3COCC3(C)O)n2)cc1 (single isomer, unassigned) [Example 150b]
IC50 [1]: 100 to 1000 nM
IC50 [3]: ≥ 1000 nM

[2H]C([2H])([2H])NS(=O)(=O)c1ccc(Nc2ncc(C(F)(F)F)c(O[C@H]3CCOC[C@H]3O)n2)c(F)c1 (single isomer, unassigned) [Example 101b, cis-3-fluoro-4-((4-((3-hydroxytetrahydro-2H-pyran-4-yl)oxy)-5-(trifluoromethyl)pyrimidin-2-yl)amino)-N-(methyl-d3)benzenesulfonamide]
IC50 [1]: 10 to 100 nM

N#Cc1cnc(Nc2ccc(S(N)(=O)=O)cc2)nc1OCC1CCCCC1 [Example 13]
IC50 [1]: 10 to 100 nM
IC50 [3]: 10 to 100 nM

[2H]C([2H])([2H])NS(=O)(=O)c1ccc(Nc2ncc(C(=C)F)c(O[C@@H]3CCC[C@@H]3O)n2)cc1 (single isomer, unassigned) [Example 135b, cis-4-((5-(1-fluorovinyl)-4-((2-hydroxycyclopentyl)oxy)pyrimidin-2-yl)amino)-N-(methyl-d3)benzenesulfonamide]
IC50 [1]: 10 to 100 nM
IC50 [3]: 100 to 1000 nM

C=C(F)c1cnc(Nc2ccc(S(=O)(=O)NC)cc2)nc1O[C@@H]1CCC[C@@H]1O (single isomer, unassigned) [Example 135b, cis-4-((5-(1-fluorovinyl)-4-((2-hydroxycyclopentyl)oxy)pyrimidin-2-yl)amino)-N-(methyl-d3)benzenesulfonamide]
IC50 [2]: 100 to 1000 nM

[2H]C([2H])([2H])NS(=O)(=O)c1ccc(Nc2ncc(C(F)(F)F)c(O[C@H]3CCOC[C@H]3O)n2)cc1 (single isomer, unassigned) [Example 100b, cis-4-((4-((3-hydroxytetrahydro-2H-pyran-4-yl)oxy)-5-(trifluoromethyl)pyrimidin-2-yl)amino)-N-(methyl-d3)benzenesulfonamide]
IC50 [1]: 10 to 100 nM
IC50 [3]: 100 to 1000 nM

CS(=N)(=O)c1ccc(Nc2ncc(C#N)c(N3CCCCC3)n2)cc1 (stereo not drawn) [Example 90]
IC50 [1]: 10 to 100 nM
IC50 [3]: 100 to 1000 nM

CC1(COc2nc(NC3CCN(S(=O)(=O)c4cn[nH]c4)CC3)ncc2C#N)CCCC1 [Example 8, 2-((1-((1H-pyrazol-4-yl)sulfonyl)piperidin-4-yl)amino)-4-((1-methylcyclopentyl)methoxy)pyrimidine-5-carbonitrile]
IC50 [2]: 100 to 1000 nM

N#Cc1cnc(Nc2ccc(S(N)(=O)=O)cc2)nc1N1CCCC(c2ccccc2)C1 (racemic) [Example 84]
IC50 [1]: 10 to 100 nM
IC50 [3]: 10 to 100 nM

CNS(=O)(=O)c1ccc(Nc2ncc(C(F)(F)F)c(O[C@H]3CCOC[C@H]3O)n2)cc1 (single isomer, unassigned) [Example 100b, cis-4-((4-((3-hydroxytetrahydro-2H-pyran-4-yl)oxy)-5-(trifluoromethyl)pyrimidin-2-yl)amino)-N-(methyl-d3)benzenesulfonamide]
IC50 [2]: 100 to 1000 nM

C[C@@H]1CCCCN1c1nc(Nc2ccc(S(N)(=O)=O)cc2)ncc1F [Example 87]
IC50 [1]: < 10 nM
IC50 [3]: 10 to 100 nM

Source: patent US20240166635A1, “AMINOHETEROARYL KINASE INHIBITORS” (Anrui Biomedical Technology (Guangzhou) Co.,Ltd., priority 2020, published 2024)
